Tests used:
human 5-HT1AR = target: T1, human 5-HT1AR (Homo sapiens, UniProt P08908); test: Radioligand binding at 5-HT1A in transfected HEK293 cells; conditions: for 5-HT1A pKi ± SEM / Ki: HEK293 cells transfected with human 5-HT1AR, [3H]-8-OH-DPAT, at least two independent experiments; for Ki: read-out: 5-HT1A pKi ± SEM (converted)
T1 construct: expressed in transfected cells
T1 sequence (P08908 1-422): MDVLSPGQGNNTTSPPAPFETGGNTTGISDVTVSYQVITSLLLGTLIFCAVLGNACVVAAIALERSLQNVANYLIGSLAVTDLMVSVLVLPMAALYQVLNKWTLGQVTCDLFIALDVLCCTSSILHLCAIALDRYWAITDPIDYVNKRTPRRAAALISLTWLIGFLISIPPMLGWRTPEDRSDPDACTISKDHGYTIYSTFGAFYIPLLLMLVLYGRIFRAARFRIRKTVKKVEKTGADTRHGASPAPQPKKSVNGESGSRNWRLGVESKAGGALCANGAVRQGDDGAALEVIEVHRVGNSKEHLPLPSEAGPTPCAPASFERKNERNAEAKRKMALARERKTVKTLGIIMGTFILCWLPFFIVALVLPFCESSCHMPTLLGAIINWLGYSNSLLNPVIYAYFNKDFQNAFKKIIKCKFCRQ
Description: HEK293 cells with stable expression of human 5-HT1A, 5-HT6, and 5-HT7b (prepared with the use of Lipofectamine 2000) were grown in Dulbecco’s Modified Eagle Medium (DMEM) containing 10% dialyzed fetal bovine serum (FBS) and 500 μg/mL G418 sulfate. Liver hepatocellular carcinoma Hep-G2 cells were cultured in DMEM enriched by 10% FBS, 2 mM L-glutamine, 100 IU/mL penicillin, and 50 μg/mL streptomycin (all from Sigma-Aldrich Corporation, a division of Merck KGaA, Darmstadt, Germany). Cell lines were maintained at 37 °C in a humidified atmosphere with 5% CO2. For membrane preparation, the cells were subcultured in 150 cm^2 flasks, grown to 90% confluence, washed twice with prewarmed to 37 °C phosphate buffered saline (PBS), and pelleted by centrifugation (200g) in PBS containing 0.1 mM EDTA and 1 mM dithiothreitol. Prior to membrane preparation, pellets were stored at −80 °C.
The cell pellets were thawed and homogenized in 10 volumes of assay buffer using an Ultra Turrax tissue homogenizer and centrifuged twice at 35 000g for 15 min at 4 °C, with incubation for 15 min at 37 °C in between. The composition of the assay buffers was as follows: for 5-HT1AR: 50 mM Tris HCl, 0.1 mM EDTA, 4 mM MgCl2, 10 μM pargyline, and 0.1% ascorbate; for 5-HT6R: 50 mM Tris HCl, 0.5 mM EDTA, and 4 mM MgCl2; for 5-HT7bR: 50 mM Tris HCl, 4 mM MgCl2, 10 μM pargyline, and 0.1% ascorbate. All the assays were incubated in a total volume of 200 μL in 96-well microtiter plates for 1 h at 37 °C, except 5-HT1AR which was incubated at room temperature. The process of equilibration was terminated by rapid filtration through Unifilter plates with a 96-well cell harvester and radioactivity retained on the filters was quantified on a Microbeta plate reader (PerkinElmer, USA). […] Nonspecific binding was defined with 10 μM of 5-HT in 5-HT1AR and 5-HT7R binding experiments, where 10 μM of methiothepine was used in 5-HT6R assays. Each compound was tested in triplicate at 7 concentrations (10^–10–10^–4 M). The results were analyzed with one-way ANOVA followed by the Bonferroni’s posthoc test. The inhibition constants (pKi) were calculated from the Cheng-Prusoff equation.[46] The results were expressed as means of at least two separate experiments.

5-HT2CR = target: T2, 5-HT2CR (Rattus norvegicus, UniProt P08909); test: Radioligand binding at 5-HT2C on rat frontal cortex membranes; conditions: for selectivity 5-HT2/5-HT1A: Antilog [pKi (5-HT1AR) – pKi (5-HT2CR)]; for Ki: rat frontal cortex membranes, [3H]mesulergine, read-out: 5-HT2C pKi ± SEM (converted)
T2 construct: from tissue; host or cells: frontal cortex of male Sprague-Dawley rats
T2 sequence (P08909 33-460): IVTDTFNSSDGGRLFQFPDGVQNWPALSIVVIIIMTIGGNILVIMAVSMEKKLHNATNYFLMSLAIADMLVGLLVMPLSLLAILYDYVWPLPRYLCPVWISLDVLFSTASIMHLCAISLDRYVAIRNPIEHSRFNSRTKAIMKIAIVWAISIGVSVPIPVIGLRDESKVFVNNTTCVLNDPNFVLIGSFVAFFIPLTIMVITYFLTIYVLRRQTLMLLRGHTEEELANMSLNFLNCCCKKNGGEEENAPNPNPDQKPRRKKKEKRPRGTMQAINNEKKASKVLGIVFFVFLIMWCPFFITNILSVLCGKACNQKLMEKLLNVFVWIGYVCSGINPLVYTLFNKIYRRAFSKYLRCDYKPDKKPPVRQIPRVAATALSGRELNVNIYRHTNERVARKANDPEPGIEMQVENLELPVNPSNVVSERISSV
Description: Male Sprague–Dawley rats were decapitated and their brains removed and placed on ice. The hippocampi (for the functional 5-HT1A receptor assay) or frontal cortexes (for the competitive 5-HT2A and 5-HT2C receptor assays) were dissected and homogenized with a glass homogenizer in 30 vol. ice-cold TED buffer (50 mMTris-HCl, 1 mM EDTA, 1 mM dithiotheritol, pH 7.4). Next, the homogenate was centrifuged at 21 000g for 30 min at 4 °C. The pellet was suspended in 30 vol TED buffer (pH 7.4) and incubated in a water bath for 10 min at 37 °C to remove endogenous ligands. The suspension was centrifuged again at 21 000g for 30 min at 4 °C. The pellet was resuspended in 30 vol TED buffer (pH 7.4) and the centrifugation step was repeated. The final pellet was suspended in 10 vol 50 mM Tris-HCl (pH 7.4) and stored at −80 °C until use.[47]
The 5-HT2A assay was performed according to a previously described protocol with some modifications.[48] […] Nonspecific binding was determined in the presence of 10 μM mianserin. For the 5-HT2C assay, the frontal cortex homogenates (250 μg protein/mL) were incubated in triplicate with 1 nM [^3H]mesulergine for 60 min at 36 °C in a 50 mM Tris-HCl (pH 7.4) buffer containing 0.1% ascorbate, 10 mM MgCl2, 10 μM pargyline, 100 nM spiperone, and increasing concentrations (10^–10–10^–5 M) of the compound tested. After incubation, the reaction mixture was deposited onto UniFilter-96 GF/B plates, with the aid of a FilterMate-96 Harvester. The filter plates were presoaked with 0.4% PEI for 1 h. Next, each filter well was washed with 1.75 mL of 50 mM Tris-HCl (pH 7.4) and left to dry on a heating block set to 50 °C for 2 h. Then, 45 μL of Microscint-20 scintillation fluid was added to each filter well and left to equilibrate overnight. The filter-bound radioactivity was counted in a MicroBeta^2 Microplate Counter. Curves were fitted with a one-site sigmoidal dose–response equation and pKi for each compound was calculated with the Cheng-Pursoff equation. Results were analyzed with one-way ANOVA followed by the Bonferroni’s posthoc test. The results are expressed as means ± SEM of three independent experiments.

c1ccc(C2(c3ccccc3)OC[C@H](CNCCOc3ccccc3-c3ccncc3)O2)cc1 [(S)-1, N-[(2,2-Diphenyl-1,3-dioxolan-4-yl)methyl]-2-[2-(pyridin-4-yl)phenoxy]ethan-1-ammonium hydrogenoxalate]
5-HT1A pKi ± SEM (human 5-HT1AR): 8.03 ± 0.10
selectivity 5-HT2/5-HT1A (5-HT2CR): 102
Ki (5-HT2CR): 955 nM

Cn1cncc1-c1ccccc1OCCNCC1COC(c2ccccc2)(c2ccccc2)O1 (racemic) [rac-2, N-((2,2-diphenyl-1,3-dioxolan-4-yl)methyl)-2-(2-(1-methyl-1H-imidazol-5-yl)phenoxy)ethan-1-ammonium hydrogenoxalate]
Ki (human 5-HT1AR): 7.41 nM
selectivity 5-HT2/5-HT1A (5-HT2CR): 45
Ki (5-HT2CR): 331 nM

Cn1cncc1-c1ccccc1OCCNC[C@@H]1COC(c2ccccc2)(c2ccccc2)O1 [(R)-2, N-((2,2-Diphenyl-1,3-dioxolan-4-yl)methyl)-2-(2-(1-methyl-1H-imidazol-5-yl)phenoxy)ethan-1-ammonium hydrogenoxalate]
Ki (human 5-HT1AR): 12 nM
selectivity 5-HT2/5-HT1A (5-HT2CR): 105
Ki (5-HT2CR): 1260 nM

c1ccc(C2(c3ccccc3)OC[C@@H](CNCCOc3ccccc3-c3ccncc3)O2)cc1 [(R)-1, N-[(2,2-Diphenyl-1,3-dioxolan-4-yl)methyl]-2-[2-(pyridin-4-yl)phenoxy]ethan-1-ammonium hydrogenoxalate]
5-HT1A pKi ± SEM (human 5-HT1AR): 8.35 ± 0.9
selectivity 5-HT2/5-HT1A (5-HT2CR): 204
Ki (5-HT2CR): 912 nM

Cn1cncc1-c1ccccc1OCCNC[C@H]1COC(c2ccccc2)(c2ccccc2)O1 [(S)-2, N-((2,2-Diphenyl-1,3-dioxolan-4-yl)methyl)-2-(2-(1-methyl-1H-imidazol-5-yl)phenoxy)ethan-1-ammonium hydrogenoxalate]
binding affinity at 5-HT1AR, (S)-2 vs (R)-2 (human 5-HT1AR): 3 fold
Ki (human 5-HT1AR): 4.07 nM
selectivity 5-HT2/5-HT1A (5-HT2CR): 78
Ki (5-HT2CR): 316 nM

c1ccc(C2(c3ccccc3)OCC(CNCCOc3ccccc3-c3ccncc3)O2)cc1 (racemic) [rac-1, N-[(2,2-diphenyl-1,3-dioxolan-4-yl)methyl]-2-[2-(pyridin-4-yl)phenoxy]ethan-1-ammonium hydrogenoxalate]
Ki (human 5-HT1AR): 9.12 nM
selectivity 5-HT2/5-HT1A (5-HT2CR): 40
Ki (5-HT2CR): 363 nM

Reference: publication PMC8016166, “Identification of a Potent and Selective 5-HT1A Receptor Agonist with In Vitro and In Vivo Antinociceptive Activity” (ACS Chemical Neuroscience, 2020)
